Counter-ions that a name gives are not always drawn. Like-named read-outs stand apart in the source and are kept apart here.
Assays:
[1] = test system: Plasmodium falciparum parasite; test: Whole cell assay: whole cell activity against the parasite; assay type: cell-based
Source text: Compounds can be evaluated for whole cell actvity against the Plasmadium falciparum parasite according to the procedure described in Sijwali S. and Rosenthal P. J., (2004) Proceedings of the National Academy of Sciences of the United States of America (PNAS) 101(13), 4384-4389 (see in particular "Measurement of Parasite Growth rates and Inhibitor Sensitivity" on page 4385); IC50 values can be calculated as described in Singh A. and Rosenthal P. J., (2001) Antimicrobial Agents and Chemotherapy 45(3), 949-951 (see in particular page 950, first column); synchronised parasites can be prepared as described in Divo A. A. et al., (1985) Protozool. 32, 59-64. 3) In vitro models to evaluate activity against bone metastasis

[2] = molecular target: Falcipain-3 (Plasmodium falciparum, UniProt Q8IIL0); test: Falcipain-3 enzymatic assay (fluorogenic peptide substrate, quenched endpoint read); assay type: biochemical
Procedure: 1 Determination of Falcipain-2, Falcipain-3, Vivapain-2, Cathepsin K Cathepsin S, Cathepsin L, and Cathepsin B proteolytic catalytic activity
Assays for Falcipain-2, Faicipain-3, and Vivapain-2 are carried out with parasitic recombinant enzymes. Cathepsins K, S, L, and B are carried out with human recombinant enzymes. Standard assay conditions for the determination of kinetic constants used a fluorogenic peptide substrate, typically H-D-VLR-AFC (Falcipain-2, Falcipain-3, Vivapain-2), Z-FR-AFC (Cathepsin K, L, B), or KQKLR-AMC (Cathepsin S) and are determined in 100 mM sodium acetate, pH 5.5, containing 10 mM DTT and 0.5 mM CHAPS (Falcipain-2, Falcipain-3, Vivapain-2), and 100 mM sodium acetate, pH 5.5, containing 5 mM L-cysteine, 1mM CHAPS and 5mM EDTA (Cathepsin K, L, B), or 50mM MES, pH 6.5, containing 0.5mM CHAPS, 10mM L-CYS, 5mM EDTA (Cathepsin S). Stock substrate solutions are prepared at 20 mM in DMSO. The activity assays contained 30 uM substrate (Falcipain-2, Falcipain-3, Vivapain-2), 20 uM substrate (Cathepsin K), 25uM substrate (Cathepsin B), 5uM substrate (Cathepsin L), and 30uM substrate (Cathepsin S). All assays contained 1% DMSO. […] All assays are conducted at ambient temperature as end point assays being quenched after 60 minutes with the exception of Cathepsin S at 90 minutes, with 16.6 uM E-64 in 1% DMSO. Product formation (AFC or AMC) is determined from fluorescence (excitation at 405nm; emission at 530nm, AFC, or excitation at 360 nm; emission at 460 nm, AMC) monitored with a LJL Aquest (Molecular Devices) fluorescent plate reader. In the case of kinetic reads (used in mechanism of action studies), the reaction is not quenched but is read in the plate reader every 3 minutes for approximately 90 minutes. In addition, the mechanism of action studies for Falcipain-2 utilize Z-LR-AMC as the substrate. Product formation is determined from the fluorescence of AMC, measured with a LJL Acquest (Molecular Devices) fluorescent plate reader (excitation at 360nm; emission at 460nm).
Potential inhibitors are evaluated using the quenched read (endpoint) method. Assays are carried out in the presence of variable concentrations of test compound. Reactions are initiated by addition of enzyme and substrate to wells containing inhibitor stamped in 100% DMSO. For endpoint assays, the reaction is quenched with the addition of E64. Dose response data is fit to an IC50 curve with preset fitting tools according to equation 1: y = a + (b-a)/(1 + (10^x /10^c ())^d ) [formula] where y is the response at a particular inhibitor concentration x, a is the minimum response value, b is the maximum response value, c is the IC50, and d is the slope of the IC50 curve. […]. For a more direct measurement of the KI and the binding mechanism, we performed mechanism of action studies that included a titration of substrate and inhibitor with a kinetic read. […]

Sequence of Falcipain-3 (Q8IIL0 243-492): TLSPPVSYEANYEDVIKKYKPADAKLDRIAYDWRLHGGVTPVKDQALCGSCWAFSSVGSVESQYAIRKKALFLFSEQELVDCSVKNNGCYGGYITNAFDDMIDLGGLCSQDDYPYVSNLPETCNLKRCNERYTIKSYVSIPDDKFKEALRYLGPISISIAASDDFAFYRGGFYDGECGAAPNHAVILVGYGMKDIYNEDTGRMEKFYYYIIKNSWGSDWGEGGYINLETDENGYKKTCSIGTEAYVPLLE

| Structure (SMILES) | IC50 ([1]; Plasmodium falciparum) | IC50 [1] | IC50 [2] |
| --- | --- | --- | --- |
| CN1CCN(Cc2ccc(C(=O)NN(c3nc(C#N)ncc3Br)C3CCCC3)cc2)CC1 [Example 1, N'-(5-bromo-2-cyano-4-pyrimidinyl)-N'-cyclopentyl-4-[(4-methyl-1-piperazinyl)methyl]benzohydrazide trifluoroacetate] | 15 to 150 nM |  | 15 to 150 nM |
| CN1CCC(CN2CCN(Cc3cccc(C(=O)NN(c4nc(C#N)ncc4Br)C4CCCC4)c3)CC2)CC1 [Example 15, N'-(5-bromo-2-cyano-4-pyrimidinyl)-N'-cyclopentyl-3-({4-[(1-methyl-4-piperidinyl)methyl]-1-piperazinyl}methyl)benzohydrazide trifluoroacetate] | 2.5 to 15 nM |  | 15 to 150 nM |
| CN(CC(=O)N(C)C)Cc1ccc(C(=O)NN(c2nc(C#N)ncc2Cl)C2CCCC2)cc1 [Example 60, N^2-[(4-{[2-(5-chloro-2-cyano-4-pyrimidinyl)-2-cyclopentylhydrazino]carbonyl}phenyl)methyl]-N^1,N^1,N^2-trimethylglycinamide trifluoroacetate] | 15 to 150 nM |  |  |
| CN(CCC1OCCO1)Cc1ccc(C(=O)NN(c2nc(C#N)ncc2Cl)C2CCCC2)cc1 [Example 61, N'-(5-chloro-2-cyano-4-pyrimidinyl)-N'-cyclopentyl-4-{[[2-(1,3-dioxolan-2-yl)ethyl](methyl)amino]methyl}benzohydrazide trifluoroacetate] | 15 to 150 nM |  |  |
| CN(CCc1ccccc1)Cc1ccc(C(=O)NN(c2nc(C#N)ncc2Cl)C2CCCC2)cc1 [Example 62, N'-(5-chloro-2-cyano-4-pyrimidinyl)-N'-cyclopentyl-4-{[methyl(2-phenylethyl)amino]methyl}benzohydrazide trifluoroacetate] | 15 to 150 nM |  |  |
| CN(CCCc1ccccc1)Cc1ccc(C(=O)NN(c2nc(C#N)ncc2Cl)C2CCCC2)cc1 [Example 64, N'-(5-chloro-2-cyano-4-pyrimidinyl)-N'-cyclopentyl-4-{[methyl(3-phenylpropyl)amino]methyl}benzohydrazide trifluoroacetate] | 15 to 150 nM |  |  |
| CN(Cc1ccc(C(=O)NN(c2nc(C#N)ncc2Cl)C2CCCC2)cc1)C1CCC2(CC1)OCC(C)(C)CO2 [Example 65, N'-(5-chloro-2-cyano-4-pyrimidinyl)-N'-cyclopentyl-4-{[(3,3-dimethyl-1,5-dioxaspiro[5.5]undec-9-yl)(methyl)amino]methyl}benzohydrazide trifluoroacetate] | 15 to 150 nM |  |  |
| CCN(CC)Cc1ccc(C(=O)NN(c2nc(C#N)ncc2Cl)C2CCCC2)cc1 [Example 66, N'-(5-chloro-2-cyano-4-pyrimidinyl)-N'-cyclopentyl-4-[(diethylamino)methyl]benzohydrazide trifluoroacetate] | 15 to 150 nM |  |  |
| CN1CCN(Cc2ccc(C(=O)NN(c3nc(C#N)ncc3Cl)C3CCOCC3)cc2)CC1 [Example 67, N'-(5-chloro-2-cyano-4-pyrimidinyl)-4-[(4-methyl-1-piperazinyl)methyl]-N'-(tetrahydro-2H-pyran-4-yl)benzohydrazide trifluoroacetate] | 15 to 150 nM |  |  |
| CCN(Cc1ccc(C(=O)NN(c2nc(C#N)ncc2Cl)C2CCCC2)cc1)C(C)C [Example 68, N'-(5-chloro-2-cyano-4-pyrimidinyl)-N'-cyclopentyl-4-{[ethyl(1-methylethyl)amino]methyl}benzohydrazide trifluoroacetate] | 2.5 to 15 nM |  |  |
| CCN(Cc1ccc(C(=O)NN(c2nc(C#N)ncc2Cl)C2CCCC2)cc1)C1CCCCC1 [Example 69, N'-(5-chloro-2-cyano-4-pyrimidinyl)-4-{[cyclohexyl(ethyl)amino]methyl}-N'-cyclopentylbenzohydrazide trifluoroacetate] | 2.5 to 15 nM |  |  |

Now from value to compound, other results behind:

| IC50 ([1]; Plasmodium falciparum) | IC50 [1] | Structure (SMILES) | IC50 [2] |
| --- | --- | --- | --- |
| 15 to 150 nM |  | N#Cc1ncc(Cl)c(N(NC(=O)c2ccc(CN3CCC(O)CC3)cc2)C2CCCC2)n1 [Example 70, N'-(5-chloro-2-cyano-4-pyrimidinyl)-N'-cyclopentyl-4-[(4-hydroxy-1-piperidinyl)methyl]benzohydrazide trifluoroacetate] |  |
| 15 to 150 nM |  | CN(Cc1ccc(C(=O)NN(c2nc(C#N)ncc2Cl)C2CCCC2)cc1)C(C)(C)Cc1ccccc1 [Example 71, N'-(5-chloro-2-cyano-4-pyrimidinyl)-N'-cyclopentyl-4-{[(1,1-dimethyl-2-phenylethyl)(methyl)amino]methyl}benzohydrazide trifluoroacetate] |  |
| 2.5 to 15 nM |  | CC(C)N(Cc1ccc(C(=O)NN(c2nc(C#N)ncc2Cl)C2CCCC2)cc1)C(C)C [Example 72, trifluoroacetate] |  |
| 2.5 to 15 nM |  | CN(Cc1ccc(C(=O)NN(c2nc(C#N)ncc2Cl)C2CCCC2)cc1)C(C)(C)C [Example 73, N'-(5-chloro-2-cyano-4-pyrimidinyl)-N'-cyclopentyl-4-{[(1,1-dimethylethyl)(methyl)amino]methyl}benzohydrazide trifluoroacetate] |  |
| 15 to 150 nM |  | CCN(C)Cc1ccc(C(=O)NN(c2nc(C#N)ncc2Cl)C2CCCC2)cc1 [Example 74, N'-(5-chloro-2-cyano-4-pyrimidinyl)-N'-cyclopentyl-4-{[ethyl(methyl)amino]methyl}benzohydrazide trifluoroacetate] |  |
| 15 to 150 nM |  | CC(C)N(Cc1ccc(C(=O)NN(c2nc(C#N)ncc2Cl)C2CCCC2)cc1)C1CCCCC1 [Example 75, N'-(5-chloro-2-cyano-4-pyrimidinyl)-4-{[cyclohexyl(1-methylethyl)amino]methyl}-N'-cyclopentylbenzohydrazide trifluoroacetate] |  |
| 15 to 150 nM |  | CN(Cc1ccc(C(=O)NN(c2nc(C#N)ncc2Cl)C2CCCC2)cc1)CC(O)CO (centres unmarked) [Example 76, N'-(5-chloro-2-cyano-4-pyrimidinyl)-N'-cyclopentyl-4-{[(2,3-dihydroxypropyl)(methyl)amino]methyl}benzohydrazide trifluoroacetate] |  |
|  | 15 to 150 nM | CN1CCN(c2ncc(C(=O)NN(c3nc(C#N)ncc3Cl)C3CCCC3)s2)CC1 [Example 77] |  |
| 15 to 150 nM |  | CN1CCN(c2cccc(C(=O)NN(c3nc(C#N)ncc3Cl)C3CCCC3)n2)CC1 [Example 78, N'-(5-chloro-2-cyano-4-pyrimidinyl)-N'-cyclopentyl-6-(4-methyl-1-piperazinyl)-2-pyridinecarbohydrazide trifluoroacetate] |  |
|  | 15 to 150 nM | CC(=O)N1CCC(N(NC(=O)OC(C)(C)C)c2nc(C#N)ncc2Br)CC1 [Example 79, 1,1-dimethylethyl 2-(1-acetyl-4-plperidinyl)-2-(5-bromo-2-cyano-4-pyrimidinyl)hydrazinecarboxylate] |  |
| 15 to 150 nM |  | CCCN1CCN(c2ccc(C(=O)NN(c3nc(C#N)ncc3Br)C3CCCCC3)cc2)CC1 [Example 80, N'-(5-bromo-2-cyano-4-pyrimidinyl)-N'-cyclohexyl-4-(4-propyl-1-piperazinyl)benzohydrazide trifluoroacetate] |  |
| 2.5 to 15 nM |  | CCN(CCCNC(=O)OC(C)(C)C)Cc1ccc(C(=O)NN(c2nc(C#N)ncc2Cl)C2CCCC2)cc1 [Example 81, 1,1-dimethylethyl {3-[[(4-{[2-(5-chloro-2-cyano-4-pyrimidinyl)-2-cyclopentylhydrazino]carbonyl}phenyl)methyl](ethyl)amino]propyl}carbamate] |  |
| > 400 nM |  | CN1CCN(Cc2ccc(C(=O)NN(CC(C)(C)C)c3nc(C#N)ncc3Br)cc2)CC1 [comparative Example 39, N'-(5-bromo-2-cyano-4-pyrimidinyl)-N'-(2,2-dimethylpropyl)-4-[(4-methyl-1-piperazinyl)methyl]benzohydrazide trifluoroacetate, reference compound] |  |

— EP2030621A1, “Novel substituted pyrimidines as cysteine protease inhibitors” (GLAXO GROUP LIMITED, priority 2007, dated 2009)
